The test system of this assay is avian virus A/duck/Czechoslovakia/56, H4N6. The format is binding, avian influenza A virus (H4N6).

Entries after “also recorded” stand apart in the source; their conditions may differ.

As for “NeuAcα3Galβ3GalNAcβ4(NeuAcα3)Galβ4GlcβCer [GD1a]”, the “Binding of avian influenza virus HRP conjugate to glycolipid on TLC plate” value was “binding”.

Regarding NeuAcα3Galβ4GlcβCer [GM3], the “Binding of avian influenza virus HRP conjugate to glycolipid on TLC plate” value is reported as “not observed”. In the case of sulfatide it was “probably unspecific interaction”; in that of “NeuAcα3Galβ4GlcNAcβ3Galβ4GlcβCer [S-3-PG]”, “binding; also recorded: bound”; in that of “NeuAcα3Galβ3GalNAcβ4(NeuAcα8NeuAcα3)Galβ4GlcβCer [GT1b]”, “binding”.

Values taken from patent US7902170B2, “Influenza virus binding, sialylated oligosaccharide substance and use thereof” (priority 2000, dated 2011).
